Results: ChEMBL document CHEMBL4387711, “Discovery of niclosamide and its O-alkylamino-tethered derivatives as potent antibacterial agents against carbapenemase-producing and/or colistin resistant Enterobacteriaceae isolates” (2019)
In brackets after ≈: the same amount, converted by molar mass. Activity calls are given as the source filed them. The rule behind the calls is not given here.

Legend:
Klebsiella pneumoniae [1] = experiment: Antibacterial activity against colistin-susceptible NDM-1/carbapenemase-producing Klebsiella pneumoniae by broth microdilution method; assay type: functional
Enterobacter cloacae [2] = experiment: Antibacterial activity against colistin-resistant Enterobacter cloacae 190 assessed as inhibition of growth at 50 uM after 18 hrs; assay type: functional, organism-based
Enterobacter cloacae [3] = experiment: Antibacterial activity against colistin-resistant Enterobacter cloacae 297 by broth microdilution method; assay type: functional
Enterobacter cloacae [4] = experiment: Antibacterial activity against colistin-resistant Enterobacter cloacae 142 assessed as inhibition of growth at 50 uM after 18 hrs; assay type: functional, organism-based
Escherichia coli [5] = experiment: Bactericidal activity against colistin-susceptible NDM-1/KPC-producing Escherichia coli assessed as reduction in bacterial count at MIC measured after 2 hrs in presence of colistin by time kill assay; assay type: functional, organism-based
Klebsiella pneumoniae [6] = experiment: Synergistic bactericidal activity against OXA-48/CTX-M-15/carbapenemase-producing Klebsiella pneumoniae 28 assessed as reduction in bacterial count at MIC measured after 8 hrs in presence of colistin by time kill assay; assay type: functional, organism-based
Klebsiella aerogenes [7] = experiment: Antibacterial activity against colistin-resistant Enterobacter aerogenes 53 assessed as inhibition of growth at 50 uM after 18 hrs; assay type: functional, organism-based
Escherichia coli [8] = experiment: Antibacterial activity against colistin-susceptible NDM1/KPC-producing Escherichia coli by broth microdilution method; assay type: functional
Klebsiella pneumoniae [9] = experiment: Antibacterial activity against colistin-susceptible NDM-1/carbapenemase-producing Klebsiella pneumoniae assessed as inhibition of growth at 50 uM after 18 hrs; assay type: functional, organism-based
Klebsiella pneumoniae [10] = experiment: Bactericidal activity against OXA-48/CTX-M-15/carbapenemase-producing Klebsiella pneumoniae 28 assessed as reduction in bacterial count at MIC measured from 4 to 8 hrs in presence of colistin by time kill assay; assay type: functional, organism-based
Escherichia coli [11] = experiment: Bactericidal activity against colistin-susceptible NDM-1/KPC-producing Escherichia coli assessed as reduction in bacterial count at MIC measured after 2 hrs by time kill assay; assay type: functional, organism-based
Klebsiella pneumoniae [12] = experiment: Synergistic antibacterial activity against colistin-susceptible NDM-1/carbapenemase-producing Klebsiella pneumoniae in presence of colistin by checkerboard assay; assay type: functional
Klebsiella pneumoniae [13] = experiment: Antibacterial activity against Klebsiella pneumoniae CECT-997 assessed as inhibition of growth at 50 uM after 18 hrs; assay type: functional, organism-based
Klebsiella pneumoniae [14] = experiment: Antibacterial activity against carbapenemase/Klebsiella pneumoniae CECT-997 by broth microdilution method; assay type: functional
Escherichia coli [15] = experiment: Antibacterial activity against colistin-susceptible NDM1/KPC-producing Escherichia coli assessed as inhibition of growth at 50 uM after 18 hrs; assay type: functional, organism-based
Escherichia coli [16] = experiment: Synergistic antibacterial activity against colistin-susceptible NDM1/KPC-producing Escherichia coli in presence of colistin by checkerboard assay; assay type: functional
Enterobacter cloacae [17] = experiment: Antibacterial activity against colistin-resistant Enterobacter cloacae 32 assessed as inhibition of growth at 50 uM after 18 hrs; assay type: functional, organism-based
Enterobacter cloacae [18] = experiment: Antibacterial activity against colistin-resistant Enterobacter cloacae 280 by broth microdilution method; assay type: functional
Enterobacter cloacae [19] = experiment: Antibacterial activity against colistin-resistant Enterobacter cloacae 280 assessed as inhibition of growth at 50 uM after 18 hrs; assay type: functional, organism-based
Klebsiella pneumoniae [20] = experiment: Antibacterial activity against colistin-susceptible OXA-48/CTX-M-15/carbapenemase-producing Klebsiella pneumoniae 28 by broth microdilution method; assay type: functional
Klebsiella pneumoniae [21] = experiment: Antibacterial activity against colistin-susceptible VIM1/carbapenemase-producing Klebsiella pneumoniae 07 assessed as inhibition of growth at 50 uM after 18 hrs; assay type: functional, organism-based
Enterobacter cloacae [22] = experiment: Antibacterial activity against colistin-resistant Enterobacter cloacae 297 assessed as inhibition of growth at 50 uM after 18 hrs; assay type: functional, organism-based
Enterobacter cloacae [23] = experiment: Antibacterial activity against colistin-resistant Enterobacter cloacae 272 assessed as inhibition of growth at 50 uM after 18 hrs; assay type: functional, organism-based
Enterobacter cloacae [24] = experiment: Antibacterial activity against colistin-resistant Enterobacter cloacae 263 assessed as inhibition of growth at 50 uM after 18 hrs; assay type: functional, organism-based
Klebsiella pneumoniae [25] = experiment: Antibacterial activity against colistin-susceptible OXA-48/CTX-M-15/carbapenemase-producing Klebsiella pneumoniae 28 assessed as inhibition of growth at 50 uM after 18 hrs; assay type: functional, organism-based
Klebsiella aerogenes [26] = experiment: Antibacterial activity against colistin-resistant Enterobacter aerogenes 3 assessed as inhibition of growth at 50 uM after 18 hrs; assay type: functional, organism-based
Klebsiella pneumoniae [27] = experiment: Antibacterial activity against colistin-resistant OXA-48/CTX-M-15/carbapenemase-producing Klebsiella pneumoniae 29 assessed as inhibition of growth at 50 uM after 18 hrs; assay type: functional, organism-based
Klebsiella pneumoniae [28] = experiment: Antibacterial activity against colistin-resistant VIM1/DHAI/carbapenemase-producing Klebsiella pneumoniae 21 assessed as inhibition of growth at 50 uM after 18 hrs; assay type: functional, organism-based
Klebsiella aerogenes [29] = experiment: Antibacterial activity against colistin-resistant Enterobacter aerogenes 53 by broth microdilution method; assay type: functional, organism-based
Enterobacter cloacae [30] = experiment: Antibacterial activity against colistin-resistant Enterobacter cloacae 142 by broth microdilution method; assay type: functional, organism-based
Klebsiella aerogenes [31] = experiment: Antibacterial activity against colistin-resistant Enterobacter aerogenes 3 by broth microdilution method; assay type: functional, organism-based
Klebsiella pneumoniae [32] = experiment: Antibacterial activity against colistin-susceptible VIM1/carbapenemase-producing Klebsiella pneumoniae 07 by broth microdilution method; assay type: functional, organism-based
Klebsiella pneumoniae [33] = experiment: Antibacterial activity against colistin-resistant VIM1/DHAI/carbapenemase-producing Klebsiella pneumoniae 21 by broth microdilution method; assay type: functional, organism-based
Enterobacter cloacae [34] = experiment: Antibacterial activity against colistin-resistant Enterobacter cloacae 263 by broth microdilution method; assay type: functional, organism-based
Enterobacter cloacae [35] = experiment: Antibacterial activity against colistin-resistant Enterobacter cloacae 272 by broth microdilution method; assay type: functional, organism-based
Klebsiella pneumoniae [36] = experiment: Antibacterial activity against colistin-resistant OXA-48/CTX-M-15/carbapenemase-producing Klebsiella pneumoniae 29 by broth microdilution method; assay type: functional, organism-based
Enterobacter cloacae [37] = experiment: Antibacterial activity against colistin-resistant Enterobacter cloacae 32 by broth microdilution method; assay type: functional, organism-based
Enterobacter cloacae [38] = experiment: Antibacterial activity against colistin-resistant Enterobacter cloacae 190 by broth microdilution method; assay type: functional, organism-based
Klebsiella pneumoniae [39] = experiment: Bactericidal activity against OXA-48/CTX-M-15/carbapenemase-producing Klebsiella pneumoniae 28 assessed as reduction in bacterial count at MIC measured from 2 hrs in presence of colistin by time kill assay; assay type: functional, organism-based
Klebsiella pneumoniae [40] = experiment: Synergistic bactericidal activity against OXA-48/CTX-M-15/carbapenemase-producing Klebsiella pneumoniae 28 assessed as reduction in bacterial count at MIC measured after 2 hrs in presence of colistin by time kill assay; assay type: functional, organism-based
Enterobacter cloacae [41] = experiment: Synergistic antibacterial activity against colistin-resistant Enterobacter cloacae 297 in presence of colistin by checkerboard assay; assay type: functional
Enterobacter cloacae [42] = experiment: Synergistic antibacterial activity against colistin-resistant Enterobacter cloacae 280 in presence of colistin by checkerboard assay; assay type: functional
Enterobacter cloacae [43] = experiment: Bactericidal activity against colistin-resistant Enterobacter cloacae 280 assessed as reduction in bacterial count at MIC measured after 2 hrs in presence of colistin by time kill assay; assay type: functional, organism-based
Enterobacter cloacae [44] = experiment: Synergistic bactericidal activity against colistin-resistant Enterobacter cloacae 280 assessed as reduction in bacterial count at MIC measured after 8 hrs in presence of colistin by time kill assay; assay type: functional, organism-based

Compound | MIC (Klebsiella pneumoniae [1]) | growth inhibition (GI) (Enterobacter cloacae [2]) | MIC (Enterobacter cloacae [3]) | growth inhibition (GI) (Enterobacter cloacae [4]) | growth inhibition (GI) (Klebsiella aerogenes [7]) | MIC (Escherichia coli [8]) | growth inhibition (GI) (Klebsiella pneumoniae [9]) | growth inhibition (GI) (Klebsiella pneumoniae [13]) | MIC (Klebsiella pneumoniae [14]) | growth inhibition (GI) (Escherichia coli [15]) | growth inhibition (GI) (Enterobacter cloacae [17]) | MIC (Enterobacter cloacae [18]) | growth inhibition (GI) (Enterobacter cloacae [19]) | MIC (Klebsiella pneumoniae [20]) | growth inhibition (GI) (Klebsiella pneumoniae [21]) | growth inhibition (GI) (Enterobacter cloacae [22]) | growth inhibition (GI) (Enterobacter cloacae [23]) | growth inhibition (GI) (Enterobacter cloacae [24]) | growth inhibition (GI) (Klebsiella pneumoniae [25]) | growth inhibition (GI) (Klebsiella aerogenes [26]) | further results
NCCCCOc1ccc(Cl)cc1C(=O)Nc1ccc([N+](=O)[O-])cc1Cl | > 15 µg/mL | inactive | > 15 µg/mL | inactive | inactive | 15 µg/mL (≈ 37.7 µM) | Active | Active | 15 µg/mL (≈ 37.7 µM) | Active | inactive | > 15 µg/mL | Active | 15 µg/mL (≈ 37.7 µM) | inactive | Active | inactive | inactive | Active | inactive | Activity (Escherichia coli [5]): Active; Activity (Klebsiella pneumoniae [6]): Active; Activity (Klebsiella pneumoniae [10]): Active; Activity (Escherichia coli [11]): Active; fractional inhibitory concentration index (FICI) (Klebsiella pneumoniae [12]): 0.5; fractional inhibitory concentration index (FICI) (Escherichia coli [16]): 0.25; growth inhibition (GI) (Klebsiella pneumoniae [27]): inactive; growth inhibition (GI) (Klebsiella pneumoniae [28]): inactive
COLISTIN | 0.5 µg/mL | – | 3 µg/mL | – | – | 0.5 µg/mL | – | – | – | – | – | 32 µg/mL | – | 0.5 µg/mL | – | – | – | – | – | – | MIC (Klebsiella aerogenes [29]): 32 µg/mL; MIC (Enterobacter cloacae [30]): 64 µg/mL; MIC (Klebsiella aerogenes [31]): 32 µg/mL; MIC (Klebsiella pneumoniae [32]): 0.5 µg/mL; Activity (Escherichia coli [11]): Active; MIC (Klebsiella pneumoniae [33]): 64 µg/mL; MIC (Enterobacter cloacae [34]): 8 µg/mL; MIC (Enterobacter cloacae [35]): 16 µg/mL; MIC (Klebsiella pneumoniae [36]): 32 µg/mL; MIC (Enterobacter cloacae [37]): > 256 µg/mL; MIC (Enterobacter cloacae [38]): 32 µg/mL
NCCCCCOc1ccc(Cl)cc1C(=O)Nc1ccc([N+](=O)[O-])cc1Cl | > 15 µg/mL | inactive | inactive | inactive | inactive | > 15 µg/mL | Active | inactive | inactive | Active | inactive | inactive | inactive | 15 µg/mL (≈ 36.4 µM) | inactive | inactive | inactive | inactive | Active | inactive | Activity (Klebsiella pneumoniae [39]): Active; Activity (Klebsiella pneumoniae [40]): Active; fractional inhibitory concentration index (FICI) (Escherichia coli [16]): 0.38; growth inhibition (GI) (Klebsiella pneumoniae [27]): inactive; growth inhibition (GI) (Klebsiella pneumoniae [28]): inactive
O=C(Nc1ccc([N+](=O)[O-])cc1Cl)c1cc(Cl)ccc1O [NICLOSAMIDE] | inactive | inactive | > 15 µg/mL | inactive | inactive | inactive | inactive | inactive | inactive | inactive | inactive | > 15 µg/mL | Active | inactive | inactive | Active | inactive | inactive | inactive | inactive | fractional inhibitory concentration index (FICI) (Enterobacter cloacae [41]): 0.25; fractional inhibitory concentration index (FICI) (Enterobacter cloacae [42]): 0.25; Activity (Enterobacter cloacae [43]): Active; Activity (Enterobacter cloacae [44]): Active; growth inhibition (GI) (Klebsiella pneumoniae [27]): inactive; growth inhibition (GI) (Klebsiella pneumoniae [28]): inactive
